Data: PubChem BioAssay AID504758 (National Center for Advancing Translational Sciences (NCATS), 2011)

Test system: Caco-2 monolayer permeability, A-to-B, LC-MS/MS
Test: Inhibitors of Cruzain: Caco-2 Permeability Profiling Assay
Conditions: active compounds read high
Description: Chagas Disease is a neglected tropical disease that affects over 16 million people in Latin America. The cysteine protease cruzain is essential for the survival Trypanosoma cruzi, the parasitic agent responsible for Chagas disease. Potential intervention for T. cruzi includes the inhibition of cruzain. This bioassay will summarize the ongoing development of small molecule cruzain inhbitiors. Currently, a screen of ~200k compounds and through extensive follow-up work a probe was identified. To further characterize the probe, it was tested in in vitro ADME assays. This permeability assay predicts the in vivo absorption of the lead across the intestinal lining by using a Caco-2 cell line and measuring the lead's rate of transport into the cytosol. […] NIH Chemical Genomics Center [NCGC] NIH Molecular Libraries Probe Production Centers Network [MLPCN] MLSCN Grant: DA024891-01 PI Name: Dr. Brian Shoichet; University of California, San Francisco
1. Buffer Preparation: Prepare 1M HEPES: add 23.83g HEPES to 100ml of 0.85% NaCl Prepare HBSS+ buffer: add 12.8ml of 1M HEPES in 0.85% NaCl to 500ml HBSS buffer. 2. Take out the compounds from -80 degrees C, ultrasonicate or pre-warm for a few minutes to thaw the compounds. 3. […] The T0, LY and T90, LY plates are read by FlexStation 3 at excitation of 485 nm and emission of 535 nm to determine LY permeability. […]

## Cc1ccc(OCCn2c(CCNC(=O)C3CCCCC3)nc3ccccc32)cc1
  apparent permeability Papp: 4.1 10^-6 cm/s
